Laboratory results reported in PubChem BioAssay (NCI).
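Briefly, cells in 96-well plates were exposed to five compound concentrations for 48 h, and endpoints were estimated by linear interpolation. TGI is the concentration that stops growth completely.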

Columns and labels:
Assay in all cases: NCI-60 cell line screen, 48 h
SK-MEL-5 melanoma = tested on: SK-MEL-5 melanoma
HOP-62 NSCLC = tested on: HOP-62 NSCLC
EKVX NSCLC = tested on: EKVX NSCLC
MCF7 breast = tested on: MCF7 breast
MALME-3M melanoma = tested on: MALME-3M melanoma
UACC-257 melanoma = tested on: UACC-257 melanoma
SF-295 CNS = tested on: SF-295 CNS
SK-MEL-28 melanoma = tested on: SK-MEL-28 melanoma
IGROV1 ovarian = tested on: IGROV1 ovarian
MDA-MB-435 = tested on: MDA-MB-435
SK-OV-3 ovarian = tested on: SK-OV-3 ovarian
NCI-H23 lung = tested on: NCI-H23 lung
K-562 leukemia = tested on: K-562 leukemia
SK-MEL-2 melanoma = tested on: SK-MEL-2 melanoma
NCI-H460 lung = tested on: NCI-H460 lung
BT-549 breast = tested on: BT-549 breast
NCI-H226 lung = tested on: NCI-H226 lung
NCI/ADR-RES ovarian = tested on: NCI/ADR-RES ovarian
DU-145 prostate = tested on: DU-145 prostate

SMILES	TGI (SK-MEL-5 melanoma) [µM]	TGI (HOP-62 NSCLC) [µM]	TGI (EKVX NSCLC) [µM]	TGI (MCF7 breast) [µM]	TGI (MALME-3M melanoma) [µM]	TGI (UACC-257 melanoma) [µM]	TGI (SF-295 CNS) [µM]	TGI (SK-MEL-28 melanoma) [µM]	TGI (IGROV1 ovarian) [µM]	TGI (MDA-MB-435) [µM]	TGI (SK-OV-3 ovarian) [µM]	TGI (NCI-H23 lung) [µM]	TGI (K-562 leukemia) [µM]	TGI (SK-MEL-2 melanoma) [µM]	TGI (NCI-H460 lung) [µM]	TGI (BT-549 breast) [µM]	TGI (NCI-H226 lung) [µM]	TGI (NCI/ADR-RES ovarian) [µM]	TGI (DU-145 prostate) [µM]
CCCCCCCCCCCCCCCC(=O)OC1C(O)C(O)C(O)C(O)C12CO2 (stereo not given)	> 100	> 100	61.4	> 100	> 100	> 100	> 100	> 100	> 100	> 100	> 100	> 100	67.8	> 100	> 100	> 100	> 100	> 100	> 100
CC(C)CC1N=C(OCc2ccccc2)OC1=O (stereo not given)	> 100	> 100	> 100	> 100	> 100	> 100	> 100	> 100	> 100	> 100	> 100	> 100	> 100	> 100	> 100	> 100	> 100	> 100	> 100
C#CCn1c(=O)ccn(/C(=C/C(=O)OCC)C(=O)OCC)c1=O	31	31.8	20.3	13	5.19	29.6	> 60.5	21.6	13.8	28.1	> 100	25.1	> 100	30.2	10.3	23.2	39.7	13.8	30.7
C/C(=N\O)c1cccc(Nc2c3ccccc3nc3occc23)c1	> 100	17.5	50.6	34	9.7	> 100	26.7	25.6	13.2	5.73	36.8	49.4	> 100	25.2	> 100	24.1	54.8	> 100	59.2
O=C(OCC(OC(=O)c1ccccc1)C1CC(C2(O)CCCCC2)C(=O)O1)c1ccccc1 (stereo not given)	> 25	> 25	> 25	> 25	> 25	> 25	> 25	> 25	> 25	> 25	> 25	7.85	> 25	> 25	> 25	> 25	> 25	> 25	> 25
CN(Cc1cnc2nc(N)nc(N)c2n1)c1ccc(C(=O)NCCCC(=O)O)cc1	> 100	> 100	> 100	> 100	> 100	> 100	> 100	> 100	> 100	> 100	> 100	> 100	> 100	> 100	> 100	> 100	> 100	> 100	> 100
CN(C)CC(C)(C)CN1c2ccccc2Sc2ccccc21	29.4	25.5	28.8	30	27.9	24.7	26.8	26.8	28.1	26.5	26	30.2	22.8	28.8	26.3	27.6	33.4	26.3	24.8
OC(Cc1cc(CC(O)(C(F)(F)F)C(F)(F)F)nc(CC(O)(C(F)(F)F)C(F)(F)F)c1)(C(F)(F)F)C(F)(F)F	2.84	3.63	9.32	9.06	7.96	5.26	2.58	5.68	5.58	7.94	> 10	2.65	> 10	4.31	1.81	6.1	7.58	6.32	7.09
CC1(C)[C@H]2Cc3cc4nc5ccccn5c4cc3[C@@H]1C2	34.3	39.7	32.7	17.8	25.7	34.2	30.8	36.3	43	36.7	36.4	32.4	> 100	32	38.8	41.5	35.4	36.7	41
CC(C)C(/C=C/c1ccc(Cl)cc1)=N\NC(=O)N/N=C(/C=C/c1ccc(Cl)cc1)C(C)C	> 100	47.3	50.5	> 100	> 100	> 100	45.2	> 100	94.7	87.6	93.1	55.9	> 100	59.8	54.8	97.9	54.9	78.9	> 100
